Experimental data taken from ChEMBL document CHEMBL5385858, “Identification of novel Pyrrolo[2,3-d]Pyrimidine-based KRAS G12C inhibitors with anticancer effects” (Eur J Med Chem, 2023).
pIC50: −log10 of the molar value. Calls of active or inactive are those of the source. The rule behind the calls is not given here.

Experiments:
SOS1-KRAS = SOS1-KRAS (Homo sapiens, UniProt P01116, G12C); test: Inhibition of KRAS G12C mutant/SOS1 (unknown origin) interaction incubated for 2 hrs in presence of GTP by HTRF assay; format: protein-complex assay
[1] = tested on: GTPase KRas (Homo sapiens), P01116 [G12C]; test: Inhibition of KRAS G12C mutant RBD in human NCI-H358 cells incubated for 24 hrs in presence of GTP by pull-down assay; format: cell-based; settings: dose <= 1.0 µM
[2] = tested on: GTPase KRas (Homo sapiens), P01116 [G12C]; test: Inhibition of KRAS G12C mutant RBD in human NCI-H358 cells upto 1 uM in presence of GTP by pull-down assay; format: cell-based; settings: time 24.0 hrs, TDE = time-dependent effect
[3] = tested on: GTPase KRas (Homo sapiens), P01116 [G12C]; test: Inhibition of KRAS G12C mutant in human NCI-H358 cells assessed as decrease in AKT phosphorylation upto 5 uM by Western blot analysis; format: cell-based; settings: time 2-72 hrs, TDE = time-dependent effect
NCI-H358 [4] = test: Antiproliferative activity against human NCI-H358 cells harboring KRAS G12C mutant assessed as inhibition of cell proliferation incubated for 3 days by CCK8 assay; format: functional, cell-based; settings: NCI-H358, 72 h
NCI-H358 [5] = test: Antiproliferative activity against human NCI-H358 cells harboring KRAS G12C/Y96D mutant assessed as inhibition of cell proliferation incubated for 48 hrs by CCK8 assay; format: functional, cell-based
NCI-H358 [6] = test: Induction of apoptosis in human NCI-H358 cells assessed as viable cells at 0.3 uM incubated for 24 hrs by Annexin V-FITC/PI staining based flow cytometry (reference value: 91.4 %); format: functional; settings: read-out: Activity
NCI-H358 [7] = test: Induction of apoptosis in human NCI-H358 cells assessed as late apoptotic cells at 0.3 uM incubated for 24 hrs by Annexin V-FITC/PI staining based flow cytometry (reference value: 1.32 %); format: functional
NCI-H358 [8] = test: Induction of apoptosis in human NCI-H358 cells assessed as early apoptotic cells at 0.5 uM incubated for 24 hrs by Annexin V-FITC/PI staining based flow cytometry (reference value: 5.4 %); format: functional
NCI-H358 [9] = test: Induction of apoptosis in human NCI-H358 cells assessed as late apoptotic cells at 0.5 uM incubated for 24 hrs by Annexin V-FITC/PI staining based flow cytometry (reference value: 1.32 %); format: functional
NCI-H358 [10] = test: Induction of apoptosis in human NCI-H358 cells assessed as early apoptotic cells at 1 uM incubated for 24 hrs by Annexin V-FITC/PI staining based flow cytometry (reference value: 5.4 %); format: functional
NCI-H358 [11] = test: Induction of apoptosis in human NCI-H358 cells assessed as late apoptotic cells at 1 uM incubated for 24 hrs by Annexin V-FITC/PI staining based flow cytometry (reference value: 1.32 %); format: functional
NCI-H358 [12] = test: Induction of apoptosis in human NCI-H358 cells assessed as necrotic cells at 1 uM incubated for 24 hrs by Annexin V-FITC/PI staining based flow cytometry (reference value: 1.88 %); format: functional
NCI-H358 [13] = test: Induction of apoptosis in human NCI-H358 cells assessed as increase in cleaved PARP level upto 5 uM incubated for 24 hrs by Western blot analysis; format: functional, cell-based
NCI-H358 [14] = test: Induction of apoptosis in human NCI-H358 cells assessed as increase in cleaved caspase-7 level upto 5 uM incubated for 24 hrs by Western blot analysis; format: functional, cell-based
NCI-H358 [15] = test: Antiproliferative activity against human NCI-H358 cells assessed as inhibition of cell proliferation at 0.03 uM incubated for 14 days by crystal violet staining based colony formation assay; format: functional; settings: time 14.0 day
NCI-H358 [16] = test: Inhibition of cell migration in human NCI-H358 cells at 0.1 to 1 uM measured for 48 hrs by wound scratch assay; format: functional, cell-based; settings: dose 0.1-1 µM
NCI-H358 [17] = test: Inhibition of cell invasion in human NCI-H358 cells measured for 24 hrs by transwell assay; format: functional, cell-based
[18] = C0 in ICR mouse at 3 mg/kg, iv measured for 24 hrs by LC-MS/MS analysis; format: ADME, organism-based; settings: in vivo
[19] = Clearance in ICR mouse at 3 mg/kg, iv measured for 24 hrs by LC-MS/MS analysis; format: ADME, organism-based; settings: in vivo
[20] = AUC (0 to t) in ICR mouse at 30 mg/kg, po measured for 24 hrs by LC-MS/MS analysis; format: ADME, organism-based; set-up: dose 30 mg/kg, time 24 hrs, route po; settings: in vivo
[21] = AUC (0 to infinity) in ICR mouse at 30 mg/kg, po measured for 24 hrs by LC-MS/MS analysis; format: ADME, organism-based; set-up: time 24 hrs, dose 30 mg/kg, route po; settings: in vivo
[22] = Tmax in ICR mouse at 30 mg/kg, po measured for 24 hrs by LC-MS/MS analysis; format: ADME, organism-based; settings: in vivo
[23] = Oral bioavailability in ICR mouse at 30 mg/kg measured for 24 hrs by LC-MS/MS analysis; format: ADME, organism-based; settings: in vivo
NCI-H358 [24] = test: Antitumor activity in human NCI-H358 cells xenografted in BALB/c-nu/nu mouse assessed as tumor growth inhibition at 10 mg/kg, po qd treated for 20 days relative to control; format: functional; settings: Mus musculus, NCI-H358, 480 h, time 20 day, read-out: TGI
NCI-H358 [25] = test: Antitumor activity in human NCI-H358 cells xenografted in BALB/c-nu/nu mouse assessed as tumor growth inhibition at 30 mg/kg, po qd treated for 20 days relative to control; format: functional; settings: NCI-H358, 480 h, time 20 day, read-out: TGI
[26] = Toxicity in BALB/c-nu/nu mouse xenografted with human NCI-H358 cells assessed as body weight loss at 10 to 30 mg/kg, po qd treated for 20 days; format: organism-based; settings: in vivo, 480 h, dose 10-30 mg/kg, time 20 day
[27] = Toxicity in BALB/c-nu/nu mouse xenografted with human NCI-H358 cells assessed as morphological damage in kidney at 10 to 30 mg/kg, po qd treated for 20 days; format: organism-based; settings: in vivo, 480 h, dose 10-30 mg/kg, time 20 day
[28] = Toxicity in BALB/c-nu/nu mouse xenografted with human NCI-H358 cells assessed as histological change in spleen at 10 to 30 mg/kg, po qd treated for 20 days by H and E staining based analysis; format: organism-based; settings: in vivo, 480 h, dose 10-30 mg/kg, time 20 day
[29] = Toxicity in BALB/c-nu/nu mouse xenografted with human NCI-H358 cells assessed as histological change in lung at 10 to 30 mg/kg, po qd treated for 20 days by H and E staining based analysis; format: organism-based; settings: in vivo, 480 h, dose 10-30 mg/kg, time 20 day

Sequence of GTPase KRas (Homo sapiens), P01116 [G12C] (P01116 whole entry G12C): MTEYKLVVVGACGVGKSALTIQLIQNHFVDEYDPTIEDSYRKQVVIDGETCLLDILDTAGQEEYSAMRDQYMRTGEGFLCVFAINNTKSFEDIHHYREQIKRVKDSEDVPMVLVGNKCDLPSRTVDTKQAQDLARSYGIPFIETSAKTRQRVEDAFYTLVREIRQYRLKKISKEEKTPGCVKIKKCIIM
Sequence of SOS1-KRAS (P01116 whole entry G12C, looked up): as the sequence (P01116 whole entry G12C) above

SMILES: C=CC(=O)N1CCN(c2nc(OC[C@@]34CCCN3C[C@H](F)C4)nc3c2cc(-c2cccc4cccc(C)c24)n3C)C[C@@H]1CC#N
- pIC50 (SOS1-KRAS): 6.68
- inhibition [1]: Dose-Dependent Effect
- inhibition [2]: Tde
- inhibition [3]: Tde
- pIC50 (NCI-H358 [4]): 6.80
- inhibition (NCI-H358 [5]): Active
- viability at 0.3 µM (NCI-H358 [6]): 83.2%
- Activity (NCI-H358 [7]): 3.93%
- Activity (NCI-H358 [8]): 14%
- Activity (NCI-H358 [9]): 6.26%
- Activity (NCI-H358 [10]): 22.4%
- Activity (NCI-H358 [11]): 5.34%
- Activity (NCI-H358 [12]): 1.03%
- Activity (NCI-H358 [13]): Active
- Activity (NCI-H358 [14]): Active
- inhibition (NCI-H358 [15]): Active
- Activity (NCI-H358 [16]): Active
- Activity (NCI-H358 [17]): Dose-Dependent Effect
- C0 at 24 h [18]: 1960 ng/mL
- clearance [19]: 62.3 mL/min/kg
- AUC(0-t) at 24 h [20]: 600 ng·h/mL
- AUC(0-inf) [21]: 835 ng·h/mL
- Tmax [22]: 4.98 min
- bioavailability [23]: 10.4%
- inhibition in vivo at 10 mg/kg (NCI-H358 [24]): 65.4%
- inhibition in vivo at 30 mg/kg (NCI-H358 [25]): 84%
- Activity [26]: Non-Toxic
- Activity [27]: Non-Toxic
- Activity [28]: Non-Toxic
- Activity [29]: Non-Toxic
